Assay results: the supplement of paper PMC10307832

Key:
Assay in all cases: relative viability (nuclei count vs DMSO), 5 days (fraction); higher = more cells survive
[1] = compound: CN[C@@H]1C[C@H]2O[C@@](C)([C@@H]1OC)n1c3ccccc3c3c4c(c5c6ccccc6n2c5c31)C(=O)NC4 [Staurosporine] + C[C@@H](Oc1cc(-c2cnn(C3CCNCC3)c2)cnc1N)c1c(Cl)ccc(F)c1Cl [Crizotinib] (partner 1 µM)
Method in brief: (§1)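 Relative viability equals treated-well nuclei counts divided by vehicle-well nuclei counts. Counts came from 4× images of lung cancer cell lines grown in 1536-well plates for 5 days after pin-tool dosing on the day after seeding. Dosing used one drug alone or a fixed anchor-drug dose plus five library-drug doses (not always all listed) in √10 steps, and values are medians of duplicate plates.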

Sulindac + Luminespib = compound: CC1=C(CC(=O)O)c2cc(F)ccc2/C1=C\c1ccc([S+](C)[O-])cc1 [Sulindac] + CCNC(=O)c1noc(-c2cc(C(C)C)c(O)cc2O)c1-c1ccc(CN2CCOCC2)cc1 [Luminespib] (partner 0.01 µM)
Method in brief: as §1

[2] = compound: CN[C@@H]1C[C@H]2O[C@@](C)([C@@H]1OC)n1c3ccccc3c3c4c(c5c6ccccc6n2c5c31)C(=O)NC4 [Staurosporine] + COc1cc2c(Oc3ccc(NC(=O)C4(C(=O)Nc5ccc(F)cc5)CC4)cc3F)ccnc2cc1OCCCN1CCOCC1 [Foretinib] (partner 0.25 µM)
Method in brief: as §1

[3] = compound: CN[C@@H]1C[C@H]2O[C@@](C)([C@@H]1OC)n1c3ccccc3c3c4c(c5c6ccccc6n2c5c31)C(=O)NC4 [Staurosporine] + Nc1nc2[nH]cc(CCc3ccc(C(=O)N[C@@H](CCC(=O)O)C(=O)O)cc3)c2c(=O)[nH]1 [Pemetrexed] (partner 0.2 µM)
Method in brief: as §1

UMC-11
relative viability ([1]; first compound 0.005 µM): 0.544
relative viability ([1]; first compound 0.01581 µM): 0.406
relative viability ([1]; first compound 0.05 µM): 0.207
relative viability ([1]; first compound 0.1581 µM): 0.0703
relative viability ([1]; first compound 0.5 µM): 0.0402
relative viability (Sulindac + Luminespib; first compound 0.08 µM): 1.27
relative viability (Sulindac + Luminespib; first compound 0.253 µM): 1.12
relative viability (Sulindac + Luminespib; first compound 0.8 µM): 0.717
relative viability (Sulindac + Luminespib; first compound 2.53 µM): 1.01
relative viability (Sulindac + Luminespib; first compound 8 µM): 1.13
relative viability ([2]; first compound 0.005 µM): 1.02
relative viability ([2]; first compound 0.01581 µM): 0.574
relative viability ([2]; first compound 0.05 µM): 0.326
relative viability ([2]; first compound 0.1581 µM): 0.116
relative viability ([2]; first compound 0.5 µM): 0.077
relative viability ([3]; first compound 0.005 µM): 0.695
relative viability ([3]; first compound 0.01581 µM): 0.472
relative viability ([3]; first compound 0.05 µM): 0.387
relative viability ([3]; first compound 0.1581 µM): 0.104
relative viability ([3]; first compound 0.5 µM): 0.0932
